According to patent US11691980B2, “Liphagal analog and multi-targeted kinase inhibitor containing liphagal or analog thereof” (TOHOKU UNIVERSITY, priority 2017, dated 2023):

Assays:
Format in all cases: biochemical
MST 4 = target: T1, MST 4 (Homo sapiens, UniProt Q9P289); test: mobility shift assay
T1 construct: purchased Carna Biosciences

BRK = target: T2, BRK (Homo sapiens, UniProt Q13882); test: mobility shift assay
T2 construct: purchased Carna Biosciences

MELK = target: T3, MELK (Homo sapiens, UniProt Q14680); test: mobility shift assay
T3 construct: purchased Carna Biosciences

p70S6Kβ = target: T4, p70S6Kβ (Homo sapiens, UniProt Q9UBS0); test: mobility shift assay
T4 construct: purchased Carna Biosciences

NEK7 = target: T5, NEK7 (Homo sapiens, UniProt Q8TDX7); test: mobility shift assay
T5 construct: purchased Carna Biosciences

FES = target: T6, FES (Homo sapiens, UniProt P07332); test: mobility shift assay
T6 construct: purchased Carna Biosciences

GSK3α = target: T7, GSK3α (Homo sapiens, UniProt P49840); test: mobility shift assay
T7 construct: purchased Carna Biosciences

PRKX = target: T8, PRKX (Homo sapiens, UniProt P51817); test: mobility shift assay
T8 construct: purchased Carna Biosciences

DYRK2 = target: T9, DYRK2 (Homo sapiens, UniProt Q92630); test: mobility shift assay
T9 construct: purchased Carna Biosciences

TRKB = target: T10, TRKB (Homo sapiens, UniProt Q16620); test: mobility shift assay
T10 construct: purchased Carna Biosciences

RAF1_Cascade = target: T11, RAF1_Cascade (Homo sapiens, UniProt P04049); test: mobility shift assay
T11 construct: purchased Carna Biosciences

COT_Cascade = target: T12, COT_Cascade (Homo sapiens, UniProt P41279); test: mobility shift assay
T12 construct: purchased Carna Biosciences

KIT(D816V) = target: T13, KIT(D816V) (Homo sapiens, UniProt P10721, D816V); test: mobility shift assay
T13 construct: purchased Carna Biosciences

PAK2 = target: T14, PAK2 (Homo sapiens, UniProt Q13177); test: mobility shift assay
T14 construct: purchased Carna Biosciences

AurB = target: T15, AurB (Homo sapiens, UniProt Q96GD4); test: mobility shift assay
T15 construct: purchased Carna Biosciences

TRKC = target: T16, TRKC (Homo sapiens, UniProt Q16288); test: mobility shift assay
T16 construct: purchased Carna Biosciences

BTK = target: T17, BTK (Homo sapiens, UniProt Q06187); test: mobility shift assay
T17 construct: purchased Carna Biosciences

MST2 = target: T18, MST2 (Homo sapiens, UniProt Q13188); test: mobility shift assay
T18 construct: purchased Carna Biosciences

FGFR4 = target: T19, FGFR4 (Homo sapiens, UniProt P22455); test: mobility shift assay
T19 construct: purchased Carna Biosciences

MET(Y1235D) = target: T20, MET(Y1235D) (Homo sapiens, UniProt P08581, Y1235D); test: mobility shift assay
T20 construct: purchased Carna Biosciences

CaMK2γ = target: T21, CaMK2γ (Homo sapiens, UniProt Q13555); test: mobility shift assay
T21 construct: purchased Carna Biosciences

MAPXK2 Cascade = test: mobility shift assay; conditions: 10 μM
QIK = target: T22, QIK (Homo sapiens, UniProt Q9H0K1); test: mobility shift assay
T22 construct: purchased Carna Biosciences

NPM1-ALK = target: T23, NPM1-ALK (Homo sapiens, UniProt Q9UM73); test: mobility shift assay
T23 construct: purchased Carna Biosciences; the other entry of the earlier key: NPM1 (P06748, Nucleophosmin)

RET(S891A) = target: T24, RET(S891A) (Homo sapiens, UniProt P07949, S891A); test: mobility shift assay
T24 construct: purchased Carna Biosciences

EPHA4 = target: T25, EPHA4 (Homo sapiens, UniProt P54764); test: mobility shift assay
T25 construct: purchased Carna Biosciences

LTK = target: T26, LTK (Homo sapiens, UniProt P29376); test: mobility shift assay
T26 construct: purchased Carna Biosciences

EPHB1 = target: T27, EPHB1 (Homo sapiens, UniProt P54762); test: mobility shift assay
T27 construct: purchased Carna Biosciences

Nuak2 = target: T28, Nuak2 (Homo sapiens, UniProt Q9H093); test: mobility shift assay
T28 construct: purchased Carna Biosciences

ARG = target: T29, ARG (Homo sapiens, UniProt P42684); test: mobility shift assay
T29 construct: purchased Carna Biosciences

Erk5 = target: T30, Erk5 (Homo sapiens, UniProt Q13164); test: mobility shift assay
T30 construct: purchased Carna Biosciences

PAK1 = target: T31, PAK1 (Homo sapiens, UniProt Q13153); test: mobility shift assay
T31 construct: purchased Carna Biosciences

LATS2 = target: T32, LATS2 (Homo sapiens, UniProt Q9NRM7); test: mobility shift assay
T32 construct: purchased Carna Biosciences

ALK(L1196M) = target: T33, ALK(L1196M) (Homo sapiens, UniProt Q9UM73, L1196M); test: mobility shift assay
T33 construct: purchased Carna Biosciences

Erk1 = target: T34, Erk1 (Homo sapiens, UniProt P27361); test: mobility shift assay
T34 construct: purchased Carna Biosciences

FGR3(K650E) = target: T35, FGR3(K650E) (Homo sapiens, UniProt P22607, K650E); test: mobility shift assay
T35 construct: purchased Carna Biosciences

CHK1 = target: T36, CHK1 (Homo sapiens, UniProt O14757); test: mobility shift assay
T36 construct: purchased Carna Biosciences

PKCη = target: T37, PKCη (Homo sapiens, UniProt P24723); test: mobility shift assay
T37 construct: purchased Carna Biosciences

PKCε = target: T38, PKCε (Homo sapiens, UniProt Q02156); test: mobility shift assay
T38 construct: purchased Carna Biosciences

CDK6 = CDK6 (Homo sapiens, UniProt Q00534); test: IC50 by mobility shift assay; conditions: Table 4, inhibitory activity against CDK6, mobility shift assay; read-out: IC50 (μM), Kinase
Source text: Next, the compounds produced in Production Examples described above were each assessed for its inhibitory activity against CDK6 by mobility shift assay. In addition, a combination showing the highest inhibitory activity is indicated by italics.

T17 sequence (Q06187 whole entry): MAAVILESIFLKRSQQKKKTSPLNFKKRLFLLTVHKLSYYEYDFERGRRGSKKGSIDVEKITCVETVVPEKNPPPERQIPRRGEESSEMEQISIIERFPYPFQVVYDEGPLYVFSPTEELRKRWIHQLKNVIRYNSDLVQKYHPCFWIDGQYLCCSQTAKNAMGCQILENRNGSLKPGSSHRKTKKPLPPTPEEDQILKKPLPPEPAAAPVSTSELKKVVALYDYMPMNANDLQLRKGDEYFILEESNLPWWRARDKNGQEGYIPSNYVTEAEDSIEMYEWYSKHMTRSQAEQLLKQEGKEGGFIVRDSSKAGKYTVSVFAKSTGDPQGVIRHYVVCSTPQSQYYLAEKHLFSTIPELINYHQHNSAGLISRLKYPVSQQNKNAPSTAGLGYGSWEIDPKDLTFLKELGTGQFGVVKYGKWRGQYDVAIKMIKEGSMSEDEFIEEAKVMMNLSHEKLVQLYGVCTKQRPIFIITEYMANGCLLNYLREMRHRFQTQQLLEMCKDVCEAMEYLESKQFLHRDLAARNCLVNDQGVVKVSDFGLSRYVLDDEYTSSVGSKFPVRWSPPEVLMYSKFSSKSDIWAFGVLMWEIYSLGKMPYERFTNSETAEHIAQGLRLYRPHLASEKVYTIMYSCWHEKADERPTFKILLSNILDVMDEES
Chain of CDK6 (Q00534 whole entry): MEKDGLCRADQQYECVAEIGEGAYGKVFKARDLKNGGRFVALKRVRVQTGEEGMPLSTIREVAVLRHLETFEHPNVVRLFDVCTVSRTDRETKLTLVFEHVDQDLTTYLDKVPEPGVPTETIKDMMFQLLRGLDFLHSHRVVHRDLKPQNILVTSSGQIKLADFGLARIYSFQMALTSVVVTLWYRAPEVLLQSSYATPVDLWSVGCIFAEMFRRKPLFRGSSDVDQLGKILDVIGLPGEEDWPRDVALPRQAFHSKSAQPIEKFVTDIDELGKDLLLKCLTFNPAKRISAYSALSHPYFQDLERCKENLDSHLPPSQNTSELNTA
T15 sequence (Q96GD4 whole entry): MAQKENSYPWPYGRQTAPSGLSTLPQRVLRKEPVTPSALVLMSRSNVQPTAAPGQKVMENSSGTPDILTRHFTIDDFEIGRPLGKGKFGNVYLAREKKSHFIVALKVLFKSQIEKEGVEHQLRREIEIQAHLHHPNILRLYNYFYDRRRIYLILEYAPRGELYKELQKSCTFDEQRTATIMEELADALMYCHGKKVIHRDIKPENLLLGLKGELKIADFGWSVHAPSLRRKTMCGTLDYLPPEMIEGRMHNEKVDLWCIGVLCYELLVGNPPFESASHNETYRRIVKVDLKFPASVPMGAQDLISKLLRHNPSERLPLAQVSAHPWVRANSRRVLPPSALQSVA
T15 sequence (Q9NQS7 803-918 partner limits assumed): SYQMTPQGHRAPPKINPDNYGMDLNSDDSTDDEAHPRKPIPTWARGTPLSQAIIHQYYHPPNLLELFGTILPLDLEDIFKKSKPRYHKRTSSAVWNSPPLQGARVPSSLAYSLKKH
T7 sequence (P49840 whole entry): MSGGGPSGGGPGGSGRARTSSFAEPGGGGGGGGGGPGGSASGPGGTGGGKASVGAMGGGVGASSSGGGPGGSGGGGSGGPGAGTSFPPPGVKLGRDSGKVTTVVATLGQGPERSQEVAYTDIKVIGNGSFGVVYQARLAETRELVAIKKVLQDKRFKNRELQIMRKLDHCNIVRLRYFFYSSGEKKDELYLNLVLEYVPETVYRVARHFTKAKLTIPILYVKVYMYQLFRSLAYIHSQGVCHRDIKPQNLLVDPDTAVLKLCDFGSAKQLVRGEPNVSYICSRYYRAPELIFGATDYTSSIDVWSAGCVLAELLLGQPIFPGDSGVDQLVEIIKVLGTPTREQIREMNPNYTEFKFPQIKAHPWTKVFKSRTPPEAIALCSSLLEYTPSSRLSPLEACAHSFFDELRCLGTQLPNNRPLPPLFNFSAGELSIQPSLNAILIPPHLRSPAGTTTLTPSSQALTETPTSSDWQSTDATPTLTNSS
T30 sequence (Q13164 whole entry): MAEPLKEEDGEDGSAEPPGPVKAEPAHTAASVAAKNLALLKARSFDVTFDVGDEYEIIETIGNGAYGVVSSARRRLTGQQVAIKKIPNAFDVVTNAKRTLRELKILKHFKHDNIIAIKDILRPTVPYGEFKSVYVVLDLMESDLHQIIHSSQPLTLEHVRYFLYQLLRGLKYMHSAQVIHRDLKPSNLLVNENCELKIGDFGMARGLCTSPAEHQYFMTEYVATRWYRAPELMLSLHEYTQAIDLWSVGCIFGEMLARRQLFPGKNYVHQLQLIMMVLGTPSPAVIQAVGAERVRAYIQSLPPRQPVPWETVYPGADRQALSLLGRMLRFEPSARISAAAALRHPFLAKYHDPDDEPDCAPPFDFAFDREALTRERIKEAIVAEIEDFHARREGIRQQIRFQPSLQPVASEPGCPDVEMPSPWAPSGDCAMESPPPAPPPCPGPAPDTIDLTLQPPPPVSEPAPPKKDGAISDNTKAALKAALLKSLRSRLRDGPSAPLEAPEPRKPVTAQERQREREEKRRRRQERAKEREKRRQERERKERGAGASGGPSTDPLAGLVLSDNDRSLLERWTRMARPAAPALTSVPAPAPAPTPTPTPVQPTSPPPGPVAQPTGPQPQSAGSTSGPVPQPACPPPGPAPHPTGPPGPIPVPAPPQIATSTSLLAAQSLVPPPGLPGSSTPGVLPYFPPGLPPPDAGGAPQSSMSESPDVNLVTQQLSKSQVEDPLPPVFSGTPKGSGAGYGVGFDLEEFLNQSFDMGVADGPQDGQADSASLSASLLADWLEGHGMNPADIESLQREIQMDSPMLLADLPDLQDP
T3 sequence (Q14680 whole entry): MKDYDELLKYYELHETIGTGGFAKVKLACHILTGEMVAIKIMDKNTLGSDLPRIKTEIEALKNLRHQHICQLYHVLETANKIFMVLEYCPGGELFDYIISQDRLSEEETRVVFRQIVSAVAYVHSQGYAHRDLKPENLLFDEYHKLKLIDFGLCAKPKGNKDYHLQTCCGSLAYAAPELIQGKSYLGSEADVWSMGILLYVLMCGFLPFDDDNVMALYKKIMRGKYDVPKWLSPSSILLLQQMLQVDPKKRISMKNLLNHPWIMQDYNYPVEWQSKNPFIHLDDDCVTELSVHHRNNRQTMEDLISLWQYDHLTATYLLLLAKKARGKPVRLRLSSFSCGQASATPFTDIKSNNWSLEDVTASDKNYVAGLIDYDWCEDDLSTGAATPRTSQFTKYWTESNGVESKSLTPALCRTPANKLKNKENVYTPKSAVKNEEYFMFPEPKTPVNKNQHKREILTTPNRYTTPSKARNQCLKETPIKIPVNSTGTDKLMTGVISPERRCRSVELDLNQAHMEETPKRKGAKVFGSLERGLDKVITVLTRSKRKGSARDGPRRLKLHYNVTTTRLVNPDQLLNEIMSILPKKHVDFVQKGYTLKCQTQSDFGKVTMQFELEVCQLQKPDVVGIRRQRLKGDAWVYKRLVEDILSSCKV
T18 sequence (Q13188 whole entry): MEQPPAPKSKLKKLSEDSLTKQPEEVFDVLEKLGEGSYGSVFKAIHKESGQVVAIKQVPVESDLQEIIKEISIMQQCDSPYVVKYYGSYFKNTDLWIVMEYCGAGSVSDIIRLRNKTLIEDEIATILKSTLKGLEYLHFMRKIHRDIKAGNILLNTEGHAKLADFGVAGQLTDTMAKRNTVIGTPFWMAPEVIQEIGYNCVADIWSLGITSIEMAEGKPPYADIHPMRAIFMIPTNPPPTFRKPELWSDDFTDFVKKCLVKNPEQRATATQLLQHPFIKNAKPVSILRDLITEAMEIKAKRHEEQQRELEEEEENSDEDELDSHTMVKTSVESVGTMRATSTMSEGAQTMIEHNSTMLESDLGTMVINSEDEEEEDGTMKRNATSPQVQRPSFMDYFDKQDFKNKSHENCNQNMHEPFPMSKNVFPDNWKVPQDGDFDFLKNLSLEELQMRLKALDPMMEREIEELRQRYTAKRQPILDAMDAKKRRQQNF
T5 sequence (Q8TDX7 whole entry): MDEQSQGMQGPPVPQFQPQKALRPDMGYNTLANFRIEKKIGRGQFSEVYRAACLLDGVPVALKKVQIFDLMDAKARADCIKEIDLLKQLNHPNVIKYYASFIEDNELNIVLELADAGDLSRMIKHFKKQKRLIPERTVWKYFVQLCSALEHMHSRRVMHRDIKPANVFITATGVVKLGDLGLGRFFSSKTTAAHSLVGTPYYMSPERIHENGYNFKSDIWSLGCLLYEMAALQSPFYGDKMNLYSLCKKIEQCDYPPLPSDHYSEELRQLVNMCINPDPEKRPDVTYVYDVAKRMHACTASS
T36 sequence (O14757 whole entry): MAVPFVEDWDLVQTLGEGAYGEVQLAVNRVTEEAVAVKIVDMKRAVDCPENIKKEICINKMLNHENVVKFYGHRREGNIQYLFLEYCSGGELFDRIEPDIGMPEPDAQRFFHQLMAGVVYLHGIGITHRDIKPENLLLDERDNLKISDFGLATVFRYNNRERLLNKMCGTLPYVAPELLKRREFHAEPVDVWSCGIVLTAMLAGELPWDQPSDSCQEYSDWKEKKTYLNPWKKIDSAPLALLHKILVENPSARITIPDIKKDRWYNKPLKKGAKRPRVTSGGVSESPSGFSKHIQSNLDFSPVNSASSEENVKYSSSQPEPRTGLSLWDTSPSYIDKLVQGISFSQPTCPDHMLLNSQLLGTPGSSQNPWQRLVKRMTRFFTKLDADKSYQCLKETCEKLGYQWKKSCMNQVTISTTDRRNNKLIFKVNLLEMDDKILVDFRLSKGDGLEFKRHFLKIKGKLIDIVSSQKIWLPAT

With C[C@@H]1CC[C@H]2C(C)(C)CCC[C@]2(C)c2c1oc1c(C=O)c(O)c(O)cc21 [LG-1, liphagal] the inhibition at 10 µM (MST 4) was 80.3%, the inhibition at 10 µM (BRK) was 52.5% and the inhibition at 10 µM (MELK) was 49.2%. For the same molecule, the inhibition at 10 µM (p70S6Kβ) was 26.4%, the inhibition at 10 µM (NEK7) was 24.4% and the inhibition at 10 µM (FES) was 23.4%. It also gave an inhibition at 10 µM (GSK3α) of 23.1%, an inhibition at 10 µM (PRKX) of 20% and an inhibition at 10 µM (DYRK2) of 18.9%. It also gave an inhibition at 10 µM (TRKB) of 15.8%, an inhibition at 10 µM (RAF1_Cascade) of 15.3% and an inhibition at 10 µM (COT_Cascade) of 14.7%. It also gave an inhibition at 10 µM (KIT(D816V)) of 13%, an inhibition at 10 µM (PAK2) of 12.4% and an inhibition at 10 µM (AurB) of 12.1%. The inhibition at 10 µM (TRKC) was 11.3%, the inhibition at 10 µM (BTK) was 10.3% and the inhibition at 10 µM (MST2) was 7.6%. The inhibition at 10 µM (FGFR4) was 7.5%, the inhibition at 10 µM (MET(Y1235D)) was 5% and the inhibition at 10 µM (CaMK2γ) was 3.8%. For the same molecule, the “% Inhibition” value (MAPXK2 Cascade) was 2.7%, the inhibition at 10 µM (QIK) was 2.7% and the inhibition at 10 µM (NPM1-ALK) was 2.3%. The inhibition at 10 µM (RET(S891A)) was 2.1%, the inhibition at 10 µM (EPHA4) was 2% and the inhibition at 10 µM (LTK) was 1.8%. For the same molecule, the inhibition at 10 µM (EPHB1) was 1.7%, the inhibition at 10 µM (Nuak2) was 1.5% and the inhibition at 10 µM (ARG) was 1.4%. For the same molecule, the inhibition at 10 µM (Erk5) was 0.6%, the inhibition at 10 µM (PAK1) was 0.5% and the inhibition at 10 µM (LATS2) was -0.6%. For the same molecule, the inhibition at 10 µM (ALK(L1196M)) was -1.5%, the inhibition at 10 µM (Erk1) was -4.4% and the inhibition at 10 µM (FGR3(K650E)) was -8.4%. For the same molecule, the inhibition at 10 µM (CHK1) was -15.3%, the inhibition at 10 µM (PKCη) was -34.3% and the inhibition at 10 µM (PKCε) was -46.9%. For the same molecule, the IC50 (CDK6) was 6.78 µM.
